# From publication PMC6033896, “Discovery of Mcl-1 inhibitors from integrated high throughput and virtual screening” (Scientific Reports, 2018)
# “And” between values parts separate entries of the source, which are not always exact repeats. Equal values may be shown once.
# Assays:
# [1] = target: T1, Mcl-1 protein (Homo sapiens, UniProt Q07820); assay: FP-based competitive binding assay with fluorescent labelled Bid BH3 peptide; settings: for Ki: calculated from FP IC50; for IC50: competition with fluorescent Bid probe 2 nM, 20 nM Mcl-1 for purchased compounds, 10 nM for synthesized library
# T1 construct: human Mcl-1 (residues 171–323); His tag (pHis-TEV vector) (N, cleaved yes); made in house; host or cells: E. coli BL21 (DE3)
# Protocol: (§1) FP-based binding assays were developed and optimized to determine the binding affinities of inhibitors to the recombinant Mcl-1, Bcl-2, Bcl-xL, and Bfl-1, proteins. […] The fluorescent Bid probe was fixed at 2 nM for all assays, except for Bfl-1, where 1 nM was used. 5 μL of the tested compound in DMSO and 120 μL of protein/probe complex in the assay buffer were added to assay plates (Corning #3792), incubated at room temperature for 3 h, and the polarization values (mP) were measured at an excitation wavelength of 485 nm and an emission wavelength of 530 nm using the plate reader Synergy H1 Hybrid, BioTek. IC50 values were determined by nonlinear regression fitting of the competition curves (GraphPad Prism 6.0 Software). The Ki values were calculated as described previously.
# (§2) 1. List of compounds purchased from vendors
# (§3) Compound s 5, 6, 7, 8 and S3, S4, S5, S6 S7, S8, S9, S10, S17 were purchased from […]
# (§4) Compound s 9, 10, 11 and S11, S12, S13 were purchased from I nterbioscreen […]
# His-tagged proteins containing human Mcl-1 (residues 171–323), the isoform 2 construct of the human Bcl-2 [Bcl2-2 construct for protein production starts with the Bcl2 sequence of 1-34 a a, followed by the Bcl-xL seq uence of 35-50 aa, and ends with the Bcl-2 sequenc e of 92-202aa.], Bcl-xL (Human Bcl-xL protein, which has an internal deletion for the 45 -85 amino acid residues and a C -terminal truncation for the amino acid residues 212-233), and Bf l-1 (residues 1-151), were expres sed from the pHis -TEV vector (a modified pET vector) in E. coli BL21 (DE3) cells. Cells were grown at 37 °C in 2×YT containing antibiotics to an OD600 density of 1.5, 1 and 0.8 for Mcl-1, Bcl-xL and Bcl-2 respectively. Protein expression wa s induced by 0 .4 mM IPTG at 20 °C overnight for all proteins except for Bf l-1 which was e xpressed at 3 7 °C for four hours . Cells were lysed in 20 mM HEPES pH 7.5, 200 mM NaCl, 0.1% βME with Leupeptin/Aprotinin (Mcl-1), 25mM Tris pH 8.5, 200mM NaCl (Bcl-2), 50mM Tris pH 7.5, 200 mM NaCl (Bcl-xL) and 50 mM Tris pH 8, 500 mM NaCl, 0. 1% βME with Leupeptin/Aprotinin (Bf l-1). All […]
# proteins were purified from the soluble fraction using Ni-NTA resin (QIAGEN), following the manufacturer’s instructions. For purification of TEV-cleaved protein, the amino-terminal His tag was cleaved by incubation with TEV protease and the protein was further purified by anion exchange (Source Q) and gel filtration chromatography (Superdex 75, Amersham Biosciences) in 20mM HEPES pH 7.0, 50 mM NaCl (Mcl-1), […]
# NaCl, 0.1% βME (Bcl-xL) and 25 mM Tris pH 7.5, 150 mM NaCl, 25% Glycerol, 0.1% βME ( Bf l-1). His-tagged Mcl-1 protein was used for TR-FRET assay and HSQC-NMR.
# His-TEV cleaved Mcl-1, Bcl-2, Bcl-xL, and Bf l-1 were used in fluorescent polarization and surface plasmon resonance binding assays.
# Mutant Mcl-1 protein wa s prepared by the QuikChange site -directed mutagenesi s method (Stratagene) , where Arg263 was mutated to Ala. The R263A expression pla smid was transformed into Rosetta2 DE3 cells and purified by the same method as the wildtype protein. Cultures were grown to an OD 600 of 1. 5 at 37 °C in Terrific Broth, induced with 0. 4 mM IPTG, and express ed overnight at 20 °C. The follow-up purification was performed the same way as was for Mcl-1 wild-type recombinant
# [2] = test system: Eµ-myc lymphoma cells overexpressing Mcl-1; assay: Eµ-myc lymphoma cell viability, flow cytometry; format: cell-based, mice; settings: increasing concentrations, 15 h
# Protocol: (§5) MEF cells, including wild-type, Bax/Bak double knockout, Bax−/− single knockout, and Bak−/− single knockout were tested and characterized (Supplementary Fig. S3). The cells were cultured in DMEM (Life Technologies), supplemented with 10% fetal bovine serum (FBS) (Thermo Scientific HyClone) and 1% Penicillin/streptomycin solution (Life Technologies). The retrovirally transduced lymphoma cells isolated from Eμ-myc transgenic mice were provided by Ricky W. Johnstone at the University of Melbourne, Melbourne, Australia and cultured as previously described[37],[65].
# (§6) The Mcl-1, Bcl-2, and Bcl-xL retroviral transduced lymphoma Eμ-myc cells were seeded in 12-well plates at 0.5 × 10^6 cells/well. […] The cells were harvested and stained with violet LIVE/DEAD Fixable Dead Cell Stain Kit (Invitrogen) according to manufacturer’s protocol. The percentage of fluorescent positive cells was determined by flow cytometry and calculated using WinList 3.0.
# [3] = test system: Eµ-myc lymphoma cells overexpressing Bcl-2; assay: Eµ-myc lymphoma cell viability, flow cytometry; format: cell-based, mice; settings: increasing concentrations
# Protocol: as §5, §6
# [4] = target: T1, Mcl-1 protein; assay: SPR-based solution competitive binding assay, immobilized biotin-labelled Bim BH3 peptide; settings: Mcl-1 20 nM; competition with immobilized Bim BH3 peptide
# Protocol: The solution competitive SPR-based assay was performed on Biacore 2000 in a similar way as was already reported. Briefly, N terminal biotin-labelled Bim BH3 peptide (141–166 amino acids) was immobilized on streptavidin (SA) chip giving a density of 800 RU (Response Units). The pre-incubated Mcl-1 protein (20 nM) with tested small-molecule inhibitors for at least 30 min was injected over the surfaces of the chip using assay buffer HBS-P (GE, #BR100368). Response units were measured at 15 s in the dissociation phase, and IC50 values were determined by nonlinear least-squares analysis using GraphPad Prism 6.0 software.
# [5] = target: T1, Mcl-1 protein; assay: TR-FRET binding assay with Bid-Dy647 peptide; settings: 10 nM Mcl-1, 10 nM Bid-Dy647
# Protocol: TR-FRET was performed using black 384-well plates in an Envision Multilabel plate reader (Perkin Elmer Life Sciences). To each well, a mixture of 10 nM Bid-Dy647 peptide (79–99), 10 nM Mcl-1 protein, and Europium-anti-His antibody were added to a final volume of 25 μl in the assay buffer (20 mM potassium phosphate, pH 7.5; 50 mM NaCl, 1 mM EDTA and 0.05% Pluronic F68). The TR-FRET signals were measured with an Envision Multilabel plate reader after 2 h of incubation. (Ex 340 nm, Em615 nm and Em665 nm) and expressed as FRET signal ratio (F665 nm/[…] * 104)
# [6] = target: T2, Bcl-2 (Homo sapiens, UniProt P10415, DEL35-91/INS34DVEENRTEAPEGTESE); assay: FP-based competitive binding assay with FAM-Bid; settings: FP
# T2 construct: His tag (pHis-TEV vector) (N, cleaved yes); made in house; host or cells: E. coli BL21 (DE3)
# Protocol: as §1, §2, §3, §4
# (§7) His-tagged proteins containing human Mcl-1 (residues 171–323), the isoform 2 construct of the human Bcl-2 [Bcl2-2 construct for protein production starts with the Bcl2 sequence of 1-34 a a, followed by the Bcl-xL seq uence of 35-50 aa, and ends with the Bcl-2 sequenc e of 92-202aa.], Bcl-xL (Human Bcl-xL protein, which has an internal deletion for the 45 -85 amino acid residues and a C -terminal truncation for the amino acid residues 212-233), and Bf l-1 (residues 1-151), were expres sed from the pHis -TEV vector (a modified pET vector) in E. coli BL21 (DE3) cells. Cells were grown at 37 °C in 2×YT containing antibiotics to an OD600 density of 1.5, 1 and 0.8 for Mcl-1, Bcl-xL and Bcl-2 respectively. Protein expression wa s induced by 0 .4 mM IPTG at 20 °C overnight for all proteins except for Bf l-1 which was e xpressed at 3 7 °C for four hours . Cells were lysed in 20 mM HEPES pH 7.5, 200 mM NaCl, 0.1% βME with Leupeptin/Aprotinin (Mcl-1), 25mM Tris pH 8.5, 200mM NaCl (Bcl-2), 50mM Tris pH 7.5, 200 mM NaCl (Bcl-xL) and 50 mM Tris pH 8, 500 mM NaCl, 0. 1% βME with Leupeptin/Aprotinin (Bf l-1). All
# [7] = target: T3, Bfl-1 (Homo sapiens, UniProt Q16548); assay: FP-based competitive binding assay with FAM-Bid
# T3 construct: Bf l-1 (residues 1-151); His tag (pHis-TEV vector) (N, cleaved yes); made in house; host or cells: E. coli BL21 (DE3)
# T3 sequence (Q16548 1-151): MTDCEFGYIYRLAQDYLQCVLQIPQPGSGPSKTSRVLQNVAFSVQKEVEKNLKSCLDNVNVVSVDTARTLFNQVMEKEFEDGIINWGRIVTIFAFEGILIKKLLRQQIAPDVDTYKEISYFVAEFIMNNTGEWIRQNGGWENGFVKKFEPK
# Protocol: as §1, §2, §3, §4, §7
# [8] = target: T4, Bcl-xL (Homo sapiens, UniProt Q07817, DEL45-85); assay: FP-based competitive binding assay with FAM-Bid; settings: FP
# T4 construct: His tag (pHis-TEV vector) (N, cleaved yes); made in house; host or cells: E. coli BL21 (DE3)
# Protocol: as §1, §2, §3, §4, §7
# T1 sequence (Q07820 171-323): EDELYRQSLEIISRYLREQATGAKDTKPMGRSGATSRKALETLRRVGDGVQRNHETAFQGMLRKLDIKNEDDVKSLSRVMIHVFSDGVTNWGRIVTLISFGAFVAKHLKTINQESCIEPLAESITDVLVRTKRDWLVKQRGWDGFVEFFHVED
# T2 sequence (P10415 with tags, fused parts or gaps INS34DVEEN/V35R/G36T/A37E/P40E/DEL42-87/P88T/V89E/P90S/P91E): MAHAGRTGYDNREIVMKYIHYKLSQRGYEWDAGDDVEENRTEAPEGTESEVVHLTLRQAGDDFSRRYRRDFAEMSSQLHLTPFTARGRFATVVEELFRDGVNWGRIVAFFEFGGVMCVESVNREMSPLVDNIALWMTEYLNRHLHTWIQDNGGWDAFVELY
# T4 sequence (Q07817 with tags, fused parts or gaps DEL45-85 limits assumed): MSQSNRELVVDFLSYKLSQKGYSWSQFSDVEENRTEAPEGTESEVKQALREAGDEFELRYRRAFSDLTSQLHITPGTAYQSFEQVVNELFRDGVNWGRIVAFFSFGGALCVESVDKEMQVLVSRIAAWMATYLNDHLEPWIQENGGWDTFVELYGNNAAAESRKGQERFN
smiles,measurement,setting,value
Cc1ccc(NC(=O)c2ccc3nc(-c4ccco4)c(-c4ccco4)nc3c2)cc1 [Compound 46],Ki,[1],15.8 ± 2.3 µM
same,IC50,[1],67.1 ± 9.1 µM
CC(C)c1cccc(NC(=O)CSc2nnc(-c3ccco3)c(-c3ccco3)n2)c1 [Compound 38],killing of Eµ-myc cells overexpressing Mcl-1,[2],killing
same,effect on Eµ-myc cells overexpressing Bcl-2,[3],selectivity
same,Ki,[1],0.6 ± 0.1 µM
same,IC50,[1],2.6 ± 0.3 µM
Nc1ccc(NC(=O)CSc2nnc(-c3ccco3)c(-c3ccco3)n2)cc1 [Compound 33],Ki,[1],> 25 µM
same,IC50,[1],> 100 µM
same,IC50,[4],> 100 µM
CC(C)c1ccc(NC(=O)CSc2nnc(-c3ccco3)c(-c3ccco3)n2)cc1 [Compound 29],killing of Eµ-myc cells overexpressing Mcl-1,[2],killing
same,effect on Eµ-myc cells overexpressing Bcl-2,[3],selectivity
same,Ki,[1],0.5 ± 0.2 µM
same,IC50,[1],2.3 ± 0.7 µM
same,IC50,[4],11.6 ± 1.1 µM
O=C(CSc1nnc(-c2ccco2)c(-c2ccco2)n1)Nc1cccc(-c2ccccc2)c1 [Compound 40],Ki,[1],1 ± 0.4 µM
same,IC50,[1],4.1 ± 1.5 µM
same,IC50,[5],7.9 ± 4.7 µM
same,IC50,[4],7.3 ± 2.1 µM
O=C(CSc1nnc(-c2ccco2)c(-c2ccco2)n1)Nc1ccc(Oc2ccccc2)cc1 [Compound 31],Ki,[1],1.6 ± 0.4 µM
same,IC50,[1],6.9 ± 1.9 µM
same,IC50,[5],9 ± 3.8 µM
COc1ccc(NC(=O)CSc2nnc(-c3ccco3)c(-c3ccco3)n2)cc1 [Compound 30],Ki,[1],7.8 ± 1.8 µM
same,IC50,[1],33 µM and 33.1 µM
same,IC50,[4],47.4 ± 3.9 µM
O=C(CSc1nnc(-c2ccccn2)c(-c2ccccn2)n1)Nc1ccccc1 [Compound 27],Ki,[1],> 12.5 µM
same,IC50,[1],> 50 µM
same,IC50,[4],> 100 µM
O=C(CSc1nnc(-c2ccco2)c(-c2ccco2)n1)Nc1ccccc1-c1ccccc1 [Compound 41],Ki,[1],1 ± 0.1 µM
same,IC50,[1],4.4 ± 0.5 µM
same,IC50,[5],12.7 ± 4.5 µM
same,IC50,[4],1.9 ± 0.7 µM
O=C(CSc1nnc(-c2ccco2)c(-c2ccco2)n1)Nc1ccc(-c2ccccc2)cc1 [Compound 35],Ki,[1],0.6 ± 0.1 µM
same,IC50,[1],2.5 ± 0.1 µM
same,IC50,[5],5 ± 2.7 µM
same,IC50,[4],5.1 ± 2.3 µM
O=C(CSc1nnc(-c2cccs2)c(-c2cccs2)n1)Nc1ccccc1 [Compound 25],Ki,[1],> 25 µM
same,IC50,[1],> 100 µM
same,IC50,[5],> 100 µM
same,IC50,[4],> 100 µM
O=C(CSc1nnc(-c2ccco2)c(-c2ccco2)n1)Nc1ccc(Cc2ccccc2)cc1 [Compound 36],Ki,[1],0.6 ± 0.1 µM
same,IC50,[1],2.5 ± 0.6 µM
same,IC50,[5],5.1 ± 1.5 µM
same,IC50,[4],4.2 ± 0.4 µM
CCc1ccc(NC(=O)CSc2nnc(-c3ccco3)c(-c3ccco3)n2)cc1 [Compound 28],Ki,[1],1.2 ± 0.1 µM
same,IC50,[1],5 ± 0.3 µM
same,IC50,[5],5.5 ± 1.8 µM
same,IC50,[4],14.3 ± 2 µM
O=C(CSc1nnc(-c2ccccc2)c(-c2ccccc2)n1)Nc1ccccc1 [Compound 26],Ki,[1],> 5 µM
same,IC50,[1],> 20 µM
same,IC50,[4],> 100 µM
c1ccc(CCSc2nnc(-c3ccco3)c(-c3ccco3)n2)cc1 [Compound 43],Ki,[1],0.5 ± 0.1 µM
same,IC50,[1],2.2 ± 0.2 µM
same,IC50,[5],5.2 ± 0.1 µM
CCc1cccc(NC(=O)CSc2nnc(-c3ccco3)c(-c3ccco3)n2)c1 [Compound 37],Ki,[1],1.2 ± 0.1 µM
same,IC50,[1],5.3 ± 0.5 µM
CN(C)c1ccc(NC(=O)CSc2nnc(-c3ccco3)c(-c3ccco3)n2)cc1 [Compound 32],Ki,[1],> 25 µM
same,IC50,[1],> 100 µM
same,IC50,[5],> 80 µM
same,IC50,[4],> 100 µM
O=C(Nc1ccccc1)c1ccc2nc(-c3ccco3)c(-c3ccco3)nc2c1 [Compound 45],Ki,[1],> 12.5 µM
same,IC50,[1],> 50 µM
c1ccc(CCCSc2nnc(-c3ccco3)c(-c3ccco3)n2)cc1 [Compound 42],Ki,[1],0.4 ± 0.1 µM
same,IC50,[1],1.5 ± 0.3 µM
same,IC50,[5],2.4 ± 0.1 µM
same,IC50,[6],> 100 µM
same,Ki,[6],> 25 µM
same,IC50,[7]; Bfl-1,11.4 ± 0.1 µM
same,Ki,[7]; FP,1.6 ± 0.1 µM
same,IC50,[8],> 100 µM
same,Ki,[8],> 20 µM
O=C(CSc1nnc(-c2ccco2)c(-c2ccco2)n1)Nc1ccc(F)cc1 [Compound 34],Ki,[1],1.9 ± 0.2 µM
same,IC50,[1],8.1 ± 0.8 µM
same,IC50,[5],11.6 ± 4 µM
same,IC50,[4],12.5 ± 1.7 µM
